Measured values published in US4368194A, “Pharmacologically active amine boranes” (The United States of America as represented by the …, priority 1981, dated 1983).
Where two headings read alike, the source gives them in different places.

Legend:
[1] = tested on: carrageenan induced edema in mouse foot pads; assay: Anti-inflammatory screen (carrageenan induced foot edema); format: in vivo, mice; conditions: for Anti-inflammatory Screen: mice
Protocol: CF1 male mice (about 30 g) were administered test drugs at 10 mg/kg in 0.05% polysorbate .80-water intraperitoneally 3 hr and 30 min prior to 0.05 ml of 2% carrageenan in 0.9% saline injected into the plantar surface of the right hind foot. Saline injected into the left hind foot served as a base line. After 3 hr, both feet were excised at the tibiotarsal (ankle) joint according to the modified (Roszkowski et al., J. Pharm. Exp. Ther., 179, 114 1971) method of Winter, resulting in an 87 mg net increase in the weight of the control animals' feet.

CF1 male mice = assay: Writhing reflex (acetic acid); format: in vivo; conditions: for Writhing Reflex: 20 mg/kg intraperitoneally, mice
Protocol: CF1 male mice were administered test drugs at 20 mg/kg intraperitoneally 20 min (see Hendershat et al., J. Pharmacol Exp. Ther. 125, 237 1959) prior to the administration of 0.5 ml of 0.6% acetic acid (Vingar et al., European J. PHarmacol, 37, 23 1976). After 5 min the number of stretches, characterized by repeated contractures of the abdominal musculature accompanied by extension of the hind limbs, was counted for the next 10 min. The control mice had 78 stretch reflexes per 10 min.

Acid phosphatase [2] = assay: Lysosomal free acid phosphatase activity, liver homogenate; format: biochemical, rats; conditions: 5 μmoles, in vitro; 20 min
Protocol: (§1) Lysosomal enzymatic assays - Sprague Dawley rats (about 160 g) were sacrificed, the liver excised, and a 10% homogenate (4x) in 0.25 M sucrose and 0.001 M (ethylenedinitrilo) tetra acetic acid, ph 7.2 was prepared.
(§2) Acid phosphatase activity (Gianetto et al., Biochem J., 59, 433 1955) was carried out by incubating with 0.1 Mβ-glycerol phosphate in 0.1 M acetate, pH 5.0 with 5 μmoles of test drugs in 1% carboxymethylcellulose (CMC) for 20 min with liver homogenate and 60 min with resuspended PMNs. Lysosome enzymes were released by 0.02% alkyl phenoxy polyethoxy ethanol-100 to obtain the total enzymatic activity. The reaction was stopped with 10% trichloroacetic acid and the solution centrifuged. Aliquots of the supernatant were assayed for inorganic phophate content by the method of Chen et al., Anal Chem., 28, 1756 (1956). Percent free acid phosphatase was calculated. Cathepsin activity was determined in an analagous manner except the substrate used was 2% azocasein (Schleuning et al., Methods in Enzymology, XLV, 330 1976) in 0.1 M acetate buffer pH 5.0. The supernatant was assayed for acid soluble peptide fragments at 366 nm. Percent free cathepsin activity was calculated.

Acid phosphatase [3] = assay: Lysosomal free acid phosphatase activity, PMNs; format: cell-based; conditions: 5 μmoles, in vitro; 60 min
Protocol: (§3) Polymorphonuclear neutrophils (PMNs) were collected from the peritoneal cavity four hr after the injection of 35 ml of 0.5% oyster glycogen in isotonic saline (Orange et al., J. Exp. Med., 127, 767 1968). The PMNs were centrifuged down at 800 g for 20 min, washed, and resuspended in minumen essential medium (MEM) with 10% fetal calf serum pH 7.4.
as §2

Cathepsin [4] = assay: Lysosomal free cathepsin activity, PMNs; format: cell-based; conditions: 5 μmoles; for PMNs % Free Cathespin Activity, pH5: in vitro, 60 min
Protocol: as §3, §2

cAMP levels in PMNs = assay: Cyclic-3',5'-adenosine monophosphate levels (cAMP) in PMNs; format: cell-based; conditions: 1 h
Protocol: as §3
Isolated PMNs were incubated with test drugs at 5μ moles for 1 hr at 37° C. in MEM at pH 7.4. The reaction was stopped with 6% trichloroacetic acid. The cyclic-3',5'-adenosine monophosphate levels were determined by the radioimmunoassay of Gilman, Proc. Natl. Acad. Sci. (USA), 67, 305 (1970), using 3H(G)-cyclic-3',5'-adenosine monophosphate (39.8 Cu/m mol). Results were calculated in p mole/10^7 PMNs cells.

[5] = target: T1, prostaglandin synthetase from beef seminal vesicle (Bos taurus, UniProt O62664); assay: Prostaglandin synthetase activity; format: biochemical; conditions: 10^-6 M; for activity at 1 µM: 1 h, read-out: Prostaglandin Synthesis; for inhibition at 1 µM: read-out: inhibition of prostaglandin synthesis
T1 construct: purchased; host or cells: beef seminal vesicle
T1 sequence (O62664 25-600): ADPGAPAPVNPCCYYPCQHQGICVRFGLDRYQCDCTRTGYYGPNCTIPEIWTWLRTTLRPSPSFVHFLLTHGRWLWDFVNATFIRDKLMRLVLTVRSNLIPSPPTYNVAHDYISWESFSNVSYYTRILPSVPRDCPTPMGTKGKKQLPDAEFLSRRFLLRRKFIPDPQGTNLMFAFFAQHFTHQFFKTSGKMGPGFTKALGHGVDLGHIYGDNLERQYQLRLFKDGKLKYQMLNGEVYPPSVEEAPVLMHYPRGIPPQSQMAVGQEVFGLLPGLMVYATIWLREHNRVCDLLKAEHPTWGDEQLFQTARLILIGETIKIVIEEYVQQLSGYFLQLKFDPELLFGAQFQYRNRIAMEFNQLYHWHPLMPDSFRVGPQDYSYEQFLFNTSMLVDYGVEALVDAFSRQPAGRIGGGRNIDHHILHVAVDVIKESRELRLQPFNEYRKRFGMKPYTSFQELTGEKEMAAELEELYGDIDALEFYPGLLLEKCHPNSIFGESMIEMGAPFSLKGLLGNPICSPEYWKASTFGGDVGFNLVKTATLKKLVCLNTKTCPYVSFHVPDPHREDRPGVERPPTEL
Protocol: After 1 hr at 37° C. the reaction was stopped with 1 N HCl and extracted with ethyl ether and evaporated. […] The plates were dried and developed in iodine vapor and with the use of prostaglandin standards the appropriate areas were scraped and counted for ^3 H content. Indometacin was used as a standard at 10^-4 M concentration. Test drugs were used at 10^-6 M.

liver mitochondria [6] = assay: Oxidative phosphorylation, succinate as substrate; format: biochemical, rats; conditions: 5 μmoles; for Oxidative Phosphorylation Succinate State 3: ADP stimulated respiration; for Oxidative Phosphorylation Succinate State 4: basal respiration
Protocol: (§4) Basal and adenosine diphosphate stimulated respiration on 10% liver homogenates was measured using succinate or αketoglutarate as substrate. See Glatt, et al., supra. The reaction vessel contained sucrose 55μ moles, KCl 22μ moles, K2 HPO4 22μ moles, test compounds at 5μ moles in 1% CMC and sodium succinate 90μ moles or αketoglutarate 60μ moles in a total volume of 1.8 ml. […] The rate of respiration was calculated at μl of O2 consumed/hr/mg wet weight of liver.

liver mitochondria [7] = assay: Oxidative phosphorylation, α-ketoglutarate as substrate; format: biochemical, rats; conditions: 5 μmoles; for Oxidative Phosphorylation α Ketoglutarate State 3: ADP stimulated respiration; for Oxidative Phosphorylation α Ketoglutarate State 4: basal respiration
Protocol: as §4

in vivo = conditions: mouse
Cathepsin [8] = assay: Lysosomal free cathepsin activity, liver homogenate; format: biochemical, rats; conditions: 5 μmoles; for Liver % Free Cathepsin Activity, pH5: in vitro, 20 min
Protocol: as §1, §2

[9] = pH 7.4, 5 μmoles, in vitro, read-out: PMNs cAMP Level

| Structure (SMILES) | Anti-inflammatory Screen ([1]; 10 mg/kg × 2 intraperitoneally) [% Control] | Writhing Reflex (CF1 male mice) [% Control] | Liver % Free Acid Phosphatase Activity, pH5 (Acid phosphatase [2]) [% Control] | PMNs % Free Acid Phosphatase Activity, pH5 (Acid phosphatase [3]) [% Control] | PMNs % Free Cathespin Activity, pH5 (Cathepsin [4]) [% Control] | activity at 5 µmol (cAMP levels in PMNs; [9]) [%] | activity at 1 µM [5] [%] | Oxidative Phosphorylation Succinate State 3 (liver mitochondria [6]) [% Control] | Oxidative Phosphorylation Succinate State 4 (liver mitochondria [6]) [% Control] | uncoupling with α-ketoglutarate as substrate (liver mitochondria [7]) | Oxidative Phosphorylation α Ketoglutarate State 3 (liver mitochondria [7]) [% Control] | Oxidative Phosphorylation α Ketoglutarate State 4 (liver mitochondria [7]) [% Control] | LD50 (in vivo) [mg/kg] | Liver % Free Cathepsin Activity, pH5 (Cathepsin [8]) [% Control] | further results |
| --- | --- | --- | --- | --- | --- | --- | --- | --- | --- | --- | --- | --- | --- | --- | --- |
| CCNC(=O)[BH2-][N+](C)(C)C [VII, (CH3)3 N.BH2 CON(H)CH2 CH3] | 63 | 29 | 78 ± 7 | 100 ± 2 | 22 ± 5 | 98 | 100 ± 7 | 74 ± 9 | 114 ± 13 | uncoupling | 45 ± 18 | 113 ± 37 | 320 |  | inhibition of the writhing reflex (CF1 male mice; text summary of Table II): 70% |
| C[N+](C)(C)[BH2-]I [IX, (CH3)3 N.BH 2 I] | 66 | 37 | 71 ± 6 | 71 ± 5 | 40 ± 4 | 133 | 67 ± 5 | 63 ± 9 | 120 ± 12 |  | 70 ± 13 | 102 ± 16 | 250 | 14 ± 3 | inhibition of free proteolytic cathepsin activity of liver (Cathepsin [8]): at least 75%; activation at 5 µmol (cAMP levels in PMNs; in vitro incubation, 5 μmoles, read-out: increase of cyclic adenosine monophosphate levels in PMNs): 33%; inhibition at 1 µM [5]: > 30% |
| N#C[BH2-][n+]1ccccc1 [XV, pyridinecyanoborane] |  | 80 | 79 ± 3 | 57 ± 4 | 49 ± 7 | 110 | 58 ± 3 | 57 ± 16 | 124 ± 16 |  | 52 ± 15 | 112 ± 42 | 25 | 57 ± 4 | Anti-inflammatory Screen ([1]; 1/3 dose (of 10 mg/kg × 2)): 83 % Control; inhibition at 1 µM [5]: > 30% |
| [BH3-][NH+](C)C [IV, (CH3)2 NH.BH3] | 66 | 37 | 82 ± 3 | 82 ± 6 | 65 ± 5 | 80 | 100 ± 5 | 82 ± 4 | 119 ± 9 |  | 53 ± 16 | 67 ± 18 | 200 | 67 ± 3 | both states 3 and 4 respiration with α-ketoglutarate (liver mitochondria [7]): inhibited |
| CCOC(=O)[BH2-][N+](C)(C)C [XVIII, (CH3)3 N.BH2 COOCH2 CH3] | 87 | 106 |  |  | 16 ± 3 |  |  | 61 ± 19 | 119 ± 18 |  | 54 ± 8 | 126 ± 51 | > 500 |  | inhibition of PMN cathepsin activity (Cathepsin [4]): at least 82% |
| [BH3-][NH2+]C(C)(C)C [Compound I, (CH3)3 CNH2.BH3] | 41 |  | 77 ± 4 | 100 ± 9 | 100 ± 4 | 58 | 100 ± 3 | 63 ± 8 | 118 ± 11 | uncoupling | 63 ± 14 | 160 ± 35 | 16 | 58 ± 5 | inhibition of the carrageenan induced edema in mouse foot pads ([1]; text summary of Table II): at least 50% |
| CCNC(=O)[BH2-][N+](C)(C)CC[N+](C)(C)[BH2-]C(=O)NCC [XIII, N,N,N^1,N^1 -Tetramethylethylenediamine-bis(N-ethylamidoborane)] | 65 | 55 | 74 ± 4 | 100 ± 7 | 70 ± 6 | 92 | 100 ± 4 | 66 ± 8 | 117 ± 8 | uncoupling | 50 ± 24 | 162 ± 43 | > 1000 |  |  |
| O=C(O)[BH2-][n+]1ccccc1 [XVI, Pyridine-carboxyborane] |  | 53 | 77 ± 8 | 100 ± 5 | 31 ± 4 |  | 76 ± 5 | 75 ± 15 | 110 ± 13 |  | 63 ± 15 | 109 ± 30 |  | 58 ± 4 | Anti-inflammatory Screen ([1]; 1/3 dose (of 10 mg/kg × 2)): 74 % Control; activity at 5 µmol (cAMP levels in PMNs; pH 7.4, read-out: PMNs cAMP Level): 100% |
